Data: patent US8680109B2, “Combination product comprising SRC kinase inhibitor AZDO530 and an antioestrogen or EGFR-TK-inhibitor” (AstraZeneca AB, priority 2004, dated 2014)
pIC50: −log10 of the molar value.

Experiments:
'Tam-R' cells [1] = experiment: Test (d) fibronectin cell migration assay; type: cell-based; conditions: Homo sapiens, 20 h; read-out: IC50 versus 'Tam-R' cells, Test (d) fibronectin cell migration
Experimental: (§1) ‘Tam-R’ MCF7 breast cancer cells were maintained in phenol red-free RPMI medium supplemented with 5% charcoal-stripped, steroid-depleted foetal calf serum, antibiotics as above, glutamine (200 mM) and 4-hydroxytamoxifen (10^−7M in ethanol).
(d) Fibronectin Cell Migration Assay
The polycarbonate filter membranes of Transwell chambers (6.5 mm diameter, 8.0 μm pore size from Costar Inc., Cambridge, Mass., USA) were coated on the underside of the membrane with 50 μg/ml fibronectin in serum-free RPMI for 2 hours at 37° C. The polycarbonate membranes were rinsed once with PBS. Cells were harvested and resuspended at a concentration of 5×10^5 cells per ml in serum-free RPMI. Aliquots of cells (100 μl; 5×10^4 cells) were seeded into each well to which 500 μl of experimental medium had been added. In control experiments, cells were allowed to migrate toward the underside of the membrane for 20 hours. In test experiments, appropriate concentrations of inhibitor compounds (or combinations of inhibitor compounds) were added and cells were allowed to migrate toward the underside of the membrane for 20 hours. […] The number of migrating cells was counted at 20-fold magnification using an inverted microscope.

[2] = tested on: MCF7 human breast cancer cells; experiment: Test (f) cell attachment assay; type: cell-based
Experimental: (f) Cell Attachment Assay
The wells of a 96-well plate were coated with Matrigel (50 μg/well) and air-dried overnight in a sterile tissue culture hood. Cells growing in log phase were harvested and adjusted to a concentration of 2×10^5 cells per ml in culture medium containing appropriate concentrations of inhibitor compounds (or combinations of inhibitor compounds). Aliquots of cells (2×10^4 cells) were seeded into each well and the plate was incubated at 37° C. for 30 minutes. The wells were washed twice with PBS to remove unbound cells prior to the addition to each well of 150 μl of MTT solution (0.5 mg/ml in serum-free medium). Plates were incubated for a further 4 hours at 37° C. to allow the development of […] crystals within the cells. The MTT solution was removed from the wells and the dye was extracted at 4° C. overnight with 10% TX-100 solution. The absorbance was measured with a Titerteck Multiskan ELISA plate reader (Flow Laboratories, UK) equipped with a 540 nm filter. Cell attachment in response to the treatments was calculated as a percentage of the cells adhered in the control (untreated) wells.

'Tam-R' cells [3] = experiment: Test (e) cell invasion assay; type: cell-based; conditions: Homo sapiens, 72 h; read-out: IC50 versus 'Tam-R' cells, Test (e) cell invasion
Experimental: as §1
A modification of the method previously described by Hiscox et al. (Breast Cancer Research Treatment, 2000, 59, 245-254) was used to study the invasive nature of the breast cancer cells.
Transwell polycarbonate filter membrane inserts (6.5 mm diameter, 8 μm pore size from Costar Inc.) were placed in 24-well tissue-culture plates and were coated with Matrigel (0.4 μg/ml) at ambient temperature overnight in a sterile tissue culture hood. After rehydrating the wells with serum-free RPMI for 1 hour at 37° C., cells were seeded onto the membrane inserts at 5×10^4 cells/well with or without appropriate concentrations of inhibitor compounds (or combinations of inhibitor compounds) and 600 μl of culture medium was added such that the membrane inserts were immersed. The wells were cultured at 37° C. for 72 hours, after which the non-invasive cells and Matrigel were removed from the inside of the wells with a cotton swab. […] Cell invasion was quantified with a fluorescent microscope by viewing 5 separate fields per membrane at 2-fold magnification and counting the number of cells in each field. […]

[4] = tested on: MCF7 human breast cancer cells; experiment: Test (b) time lapse analysis of cell motility; type: cell-based
Experimental: (b) Time Lapse Analysis of Cell Motility
Cells were cultured in 6-well tissue-culture plates and allowed to reach log phase growth. Plates were transferred to the heated stage of an inverted microscope and cell cultures were overlaid with mineral oil to minimise pH changes in the medium during the cell motility analysis. Cell motility was recorded over a period of 6 hours using a video camera coupled to a time lapse video recording system. For quantitation of cell motility, images were captured at 10 minute intervals during video playback and the movement of at least 10 individual cells was tracked using Optimas image analysis software (Media Cybernetics UK, Finchampstead, Berkshire, GB). Cell movement was plotted as either cell position (x-position vs. y-position) or total distance migrated (μm) as a function of time. To determine the directional persistence of cell motility, paths of cells were plotted such that all paths start from the origin.

[5] = tested on: human tumour cell line A549; experiment: Test (h) in vitro microdroplet migration assay; type: cell-based; conditions: read-out: activity, Test (h) (migratory inhibitory IC50)
Experimental: (h) In Vitro Microdroplet Migration Assay
This assay determines the ability of a test compound (or combination of test compounds) to inhibit the migration of adherent mammalian cell lines, for example the human tumour cell line A549.
RPMI medium (Sigma) containing 10% FCS, 1% L-glutamine and 0.3% agarose (Difco Catalogue No. 0142-01) was warmed to 37° C. in a water bath. A stock 2% aqueous agar solution was autoclaved and stored at 42° C. An aliquot (1.5 ml) of the agar solution was added to RPMI medium (10 ml) immediately prior to its use. A549 cells (Accession No. ATCC CCL185) were suspended at a concentration of 2×10^7 cells/ml in the medium and maintained at a temperature of 37° C.
A droplet (2 μl) of the cell/agarose mixture was transferred by pipette into the centre of each well of a number of 96-well, flat bottomed non-tissue-culture-treated microtitre plate (Bibby Sterilin Catalogue No. 642000). The plates were placed briefly on ice to speed the gelling of the agarose-containing droplets. Aliquots (90 μl) of medium which had been cooled to 4° C. were transferred into each well, taking care not to disturb the microdroplets. Test compounds were diluted from a 10 mM stock solution in DMSO using RPMI medium as described above. […]
Migration was assessed visually and the distance of migration was measured back to the edge of the agar droplet. […]

[6] = tested on: human and/or mouse carcinomas grown as tumours in athymic nude mice; experiment: Test (i) in vivo xenograft growth assays; conditions: AZD0530 used alone; oral once daily
Text: (i) In Vivo Xenograft Growth Assays
This test measures the ability of combination product of the invention to inhibit the growth of human and/or mouse carcinomas grown as tumours in athymic nude mice. Suitable cancer cells for injection include human MCF7 breast cancer cells (obtainable from American Type Culture Collection, 10801 University Boulevard, Manassas, Va. 20110-2209; Cat. No. HTB-22), c-Src transfected mouse 3T3 fibroblast cancer cells (transfection with an activating mutant (Y530F) of human c-Src via a similar procedure to that described by Shalloway et al., Cell, 1987, 49, 65-73), human LoVo colorectal cancer cells (obtainable from European Collection of Cell Cultures, ECACC, CAMR, Salisbury, Wiltshire, SP4 0JG, UK; Cat. No. CCL 229), human CaLu-6 lung cancer cells (ATCC Cat. No. HTB-56) and human A549 NSCLC cancer cells (ATCC Cat. No. CCL185).
A total of about 1×10^6 human cancer cells in 0.1 ml of a 1:1 mixture of matrigel (Beckton Dickinson Catalogue No. 40234) and Eagle's Minimum Essential Medium (EMEM; Gibco Catalogue No 21090-022) were injected subcutaneously into a flank of each test mouse and the resultant tumours were allowed to grow for about 10 days. […] Tumour size was measured twice weekly using callipers and a theoretical volume was calculated. The effect on tumour growth was assessed.

[7] = tested on: MCF7 human breast cancer cells ('wild type', 'Tam-R', 'Tam/TKI-R'); experiment: Test (a) cell growth studies; type: cell-based; conditions: MCF7, 168 h
Text: Various test methods have been described by Knowlden et al., Endocrinology, 2003, 144, 1032-1044 and include one or more of:— • (i) tamoxifen-responsive ‘wild type’ MCF7 human breast cancer cells; • (ii) an endocrine-insensitive variant of such MCF7 breast cancer cells that was designated ‘Tam-R’ (tamoxifen-resistant); and • (iii) a variant of such ‘TAM-R’ cells that was also insensitive to treatment with the EGFR TKI ZD1839 that was designated ‘Tam/TKI-R’.
Tamoxifen-responsive ‘wild type’ MCF7 breast cancer cells were routinely cultured in phenol red-free RPMI medium supplemented with 5% foetal calf serum plus penicillin (10 IU/ml), streptomycin (10 μg/ml) and fungizone (2.5 μg/ml). Cultures were maintained at 37° C. in a humidified atmosphere with 5% CO2. […]
Cell monolayers were grown for 7 days in serum growth factor free DCCM medium in the presence of increasing concentrations of the individual components of the above-mentioned combinations or with the combinations themselves. Cell population growth was evaluated by means of trypsin dispersion of the cell monolayers and cell number was measured using a Beckman Coulter counter (available from Beckman Coulter Limited, Luton, GB). […]

[8] = tested on: tamoxifen resistant MCF7 breast cancer cells; conditions: cited from earlier work

Compound | pIC50 ('Tam-R' cells [1]) | pIC50 [2] | pIC50 ('Tam-R' cells [3]) | pIC50 [4] | pIC50 [5] | activity (active dose), Test (i) xenograft growth [6] | pIC50 [7] | basal and TGFα stimulated growth [8]
CN1CCN(CCOc2cc(OC3CCOCC3)c3c(Nc4c(Cl)ccc5c4OCO5)ncnc3c2)CC1 [AZD0530, 4-(6-chloro-2,3-methylenedioxyanilino)-7-[2-(4-methylpiperazin-1-yl)ethoxy]-5-tetrahydropyran-4-yloxyquinazoline] | ~7.00 | 6.00 to 7.00 | ~7.00 | 6.00 to 7.00 | 5.30 to 7.00 | 1 to 200 mg/kg/day | 5.30 to 7.00 | –
COc1cc2ncnc(Nc3ccc(F)c(Cl)c3)c2cc1OCCCN1CCOCC1 [ZD1839, N-(3-chloro-4-fluorophenyl)-7-methoxy-6-(3-morpholinopropoxy)quinazolin-4-amine] | – | – | – | – | – | – | – | could be inhibited
